Like-named read-outs stand apart in the source and are kept apart here.
Biological target: CK2A1 (CK2α/β) (Homo sapiens, UniProt P68400)
Assay: CK2 kinase assay, CK2A1 (CK2α/β)
Format: biochemical
Conditions: Table A
[1] = read-out: CK2A1 (CK2α/β) (IC50)

Chain of CK2A1 (CK2α/β) (P68400 whole entry, species assumed): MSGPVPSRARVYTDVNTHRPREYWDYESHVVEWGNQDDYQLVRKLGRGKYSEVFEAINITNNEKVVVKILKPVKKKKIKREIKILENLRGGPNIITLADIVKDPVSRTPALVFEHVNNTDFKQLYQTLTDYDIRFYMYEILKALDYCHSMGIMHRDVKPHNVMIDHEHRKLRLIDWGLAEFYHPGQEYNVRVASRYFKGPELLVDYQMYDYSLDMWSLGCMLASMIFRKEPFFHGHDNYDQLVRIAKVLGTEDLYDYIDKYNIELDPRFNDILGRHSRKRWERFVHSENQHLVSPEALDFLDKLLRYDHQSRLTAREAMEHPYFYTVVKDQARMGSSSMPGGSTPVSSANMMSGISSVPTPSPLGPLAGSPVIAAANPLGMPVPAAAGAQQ
Chain of CK2A1 (CK2α/β) (P67870 whole entry partner, species assumed): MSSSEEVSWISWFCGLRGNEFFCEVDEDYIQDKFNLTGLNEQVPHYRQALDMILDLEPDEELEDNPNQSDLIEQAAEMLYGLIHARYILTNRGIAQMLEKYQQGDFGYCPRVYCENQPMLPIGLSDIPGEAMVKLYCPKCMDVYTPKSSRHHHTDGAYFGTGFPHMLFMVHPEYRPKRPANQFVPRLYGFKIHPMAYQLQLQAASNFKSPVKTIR

Structure (SMILES) | IC50 [1] [nM] | IC50 (CK2A1 (CK2α/β) (IC50, nM)) [nM]
N#Cc1cc(Nc2nc(NC3CC3)c3ncc(C#N)n3n2)c(Cl)c(N2CCC(NCC(O)CF)CC2)c1 (racemic) [Example 144, (+/−) 2-((2-chloro-5-cyano-3-(4-((3-fluoro-2-hydroxypropyl)amino)-1-piperidinyl)phenyl)amino)-4-(cyclopropylamino)imidazo [2,1-f][1,2,4]triazine-7-carbonitrile] | 1.11 | 
CNC(=O)CN1CCN(c2cc(C#N)cc(Nc3nc(NC4CC4)c4ncc(C#N)n4n3)c2Cl)C(=O)C1 [Example 625, 2-(4-(2-chloro-5-cyano-3-((7-cyano-4-(cyclopropylamino)imidazo[2,1-f][1,2,4]triazin-2-yl)amino)phenyl)-3-oxopiperazin-1-yl)-N-methylacetamide] | 5.8 | 
N#Cc1cc(Nc2nc(NC3CC3)c3ncc(C#N)n3n2)c(Cl)c(N2CCC3C(CCN3[C@H]3COC[C@@H]3O)C2)c1 (mixture of isomers) [Example 451, (+/−)-2-((2-chloro-5-cyano-3-(1-((3S,4R)-4-hydroxytetrahydrofuran-3-yl)hexahydro-1H-pyrrolo[3,2-c]pyridin-5(6H)-yl)phenyl)amino)-4-(cyclopropylamino)imidazo[2,1-f][1,2,4]triazine-7-carbonitrile] | 5.52 | 
CCNc1nc(Nc2ccc3c(c2)c(C#N)cn3C2CCN(C3CN(C(C)=O)C3)CC2)nn2c(C#N)cnc12 [Example 837, 2-((1-(1-(1-acetylazetidin-3-yl)piperidin-4-yl)-3-cyano-1H-indol-5-yl)amino)-4-(ethylamino)imidazo[2,1-f][1,2,4]triazine-7-carbonitrile] | 2.42 | 
N#Cc1cc(Nc2nc(NC3CC3)c3ncc(C#N)n3n2)c(F)c(N2CCN(C3(C#N)COC3)CC2)c1 [Example 555, 2-((5-cyano-3-(4-(3-cyanooxetan-3-yl)piperazin-1-yl)-2-fluorophenyl)amino)-4-(cyclopropylamino)imidazo[2,1-f][1,2,4]triazine-7-carbonitrile] | 1.23 | 
N#Cc1cc(Nc2nc(NC3CC3)c3ncc(C#N)n3n2)c(Cl)c(N2CCN(C3CN(C(=O)[C@H](O)C(F)(F)F)C3)CC2)c1 [Example 510, 2-{[2-chloro-5-cyano-3-(4-{1-[(2S)-3,3,3-trifluoro-2-hydroxypropanoyl]azetidin-3-yl}piperazin-1-yl)phenyl]amino}-4-(cyclopropylamino)imidazo[2,1-f][1,2,4]triazine-7-carbonitrile] | 4.24 | 
COC(=O)N[C@H]1CCN(c2cc(C#N)cc(Nc3nc(NC4CC4)c4ncc(C#N)n4n3)c2Cl)C[C@H]1N(C)CC#N [Example 766, methyl N-[(3R,4S)-1-(2-chloro-5-cyano-3-{[7-cyano-4-(cyclopropylamino)imidazo [2,1-f][1,2,4]triazin-2-yl]amino}phenyl)-3-[(cyanomethyl)(methyl)amino]piperidin-4-yl]carbamate] | 6 | 
CS(=O)(=O)CCN1CC(N2CCN(c3cc(C#N)cc(Nc4nc(NC5CC5)c5ncc(C#N)n5n4)c3Cl)CC2)C1 [Example 70] | 0.54 | 
N#Cc1cc(Nc2nc(NC3CC3)c3ncc(C#N)n3n2)c(Cl)c(N2CCN(C3(CCO)COC3)CC2)c1 [Example 537, 2-((2-chloro-5-cyano-3-(4-(3-(2-hydroxyethyl)oxetan-3-yl)piperazin-1-yl)phenyl)amino)-4-(cyclopropylamino)imidazo[2,1-f][1,2,4]triazine-7-carbonitrile] | 1.04 | 
CCNC(=O)OCC1CN(c2cc(C#N)cc(Nc3nc(NC4CC4)c4ncc(C#N)n4n3)c2Cl)CCN1C (stereo not shown) [Example 703, [4-(2-chloro-5-cyano-3-{[7-cyano-4-(cyclopropylamino)imidazo[2,1-f][1,2,4]triazin-2-yl]amino}phenyl)-1-methylpiperazin-2-yl]methyl N-ethylcarbamate] | 1.82 | 
COCC(NC1CCN(c2cc(C#N)cc(Nc3nc(NC4CC4)c4ncc(C#N)n4n3)c2Cl)CC1)C1CC1 (racemic) [Example 142, (+/−) 2-((2-chloro-5-cyano-3-(4-((1-cyclopropyl-2-methoxyethyl)amino)-1-piperidinyl)phenyl)amino)-4-(cyclopropylamino)imidazo [2,1-f][1,2,4]triazine-7-carbonitrile] | 0.67 | 
CN1CCC2(CCN(c3cc(C#N)cc(Nc4nc(NC5CC5)c5ncc(C#N)n5n4)c3Cl)CC2)C1 (racemic) [Example 27, (+/−) 2-((2-chloro-5-cyano-3-(2-methyl-2,8-diazaspiro[4.5]dec-8-yl)phenyl)amino)-4-(cyclopropylamino)imidazo [2,1-f][1,2,4]triazine-7-carbonitrile] | 0.87 | 
N#Cc1cc(Nc2nc(NC3CC3)c3ncc(C#N)n3n2)c(Cl)c(N2CCN(C3(CO)COC3)CC2)c1 [Example 538, 2-((2-chloro-5-cyano-3-(4-(3-(hydroxymethyl)oxetan-3-yl)piperazin-1-yl)phenyl)amino)-4-(cyclopropylamino)imidazo[2,1-f][1,2,4]triazine-7-carbonitrile] | 2.1 | 
CCNc1nc(Nc2cc(C#N)cc(N3CC[C@@H](NC(=O)OC)[C@H](OC(=O)Cc4ccc(OP(=O)(O)O)cc4)C3)c2Cl)nn2c(C#N)cnc12 [Example 344, (3R,4R)-1-(2-chloro-5-cyano-3-((7-cyano-4-(ethylamino)imidazo[2,1-f][1,2,4]triazin-2-yl)amino)phenyl)-4-((methoxycarbonyl)amino)piperidin-3-yl 2-(4-(phosphonooxy)phenyl)acetate] |  | 3

Now from value to compound, other results behind:

IC50 [1] [nM] | Structure (SMILES) | IC50 (CK2A1 (CK2α/β) (IC50, nM)) [nM]
1.12 | CN1CCCC(C(=O)N2CCN(c3cc(C#N)cc(Nc4nc(NC5CC5)c5ncc(C#N)n5n4)c3Cl)CC2)C1 (racemic) [Example 92, (+/−) 2-((2-chloro-5-cyano-3-(4-((1-methyl-3-piperidinyl)carbonyl)-1-piperazinyl)phenyl)amino)-4-(cyclopropylamino) imidazo[2,1-f][1,2,4] triazine-7-carbonitrile] | 
0.49 | COC(=O)N[C@H]1CN(C2CN(c3cc(C#N)cc(Nc4nc(NC5CC5)c5ncc(C#N)n5n4)c3Cl)C2)CC1OC (stereo in doubt) [Example 298, methyl ((3S,4R)-1-(1-(2-chloro-5-cyano-3-((7-cyano-4-(cyclopropylamino)imidazo[2,1-f][1,2,4]triazin-2-yl)amino)phenyl)-3-azetidinyl)-4-methoxy-3-pyrrolidinyl)carbamate] | 
0.38 | N#Cc1cc(Nc2nc(NC3CC3)c3ncc(C#N)n3n2)c(Cl)c(C(F)(F)CO)c1 [Example 737, 2-((2-chloro-5-cyano-3-(1,1-difluoro-2-hydroxyethyl)phenyl)amino)-4-(cyclopropylamino)imidazo[2,1-f][1,2,4]triazine-7-carbonitrile] | 
0.75 | CC(=O)NCC(=O)N1CCN(c2cc(C#N)cc(Nc3nc(NC4CC4)c4ncc(C#N)n4n3)c2Cl)CC1 [Example 76, N-(2-(4-(2-chloro-5-cyano-3-((7-cyano-4-(cyclopropylamino)imidazo[2,1-f][1,2,4]triazin-2-yl)amino)phenyl)-1-piperazinyl)-2-oxoethyl)acetamide] | 
0.76 | N#Cc1cc(Nc2nc(NC3CC3)c3ncc(C#N)n3n2)c(Cl)c(N2CCC3C(CCN3C3COC3)C2)c1 (stereo not shown) [Example 444, 2-((2-chloro-5-cyano-3-(1-(oxetan-3-yl)hexahydro-1H-pyrrolo[3,2-c]pyridin-5(6H)-yl)phenyl)amino)-4-(cyclopropylamino)imidazo[2,1-f][1,2,4]triazine-7-carbonitrile] | 
3.66 | N#Cc1cc(Nc2nc(NC3CC3)c3ncc(C#N)n3n2)c(Cl)c(N2CCN(C3CN(C(=O)C4CCCO4)C3)CC2)c1 (stereo not shown) [Example 517, 2-[(2-chloro-5-cyano-3-{4-[1-(oxolane-2-carbonyl)azetidin-3-yl]piperazin-1-yl}phenyl)amino]-4-(cyclopropylamino)imidazo[2,1-f][1,2,4]triazine-7-carbonitrile] | 
0.9 | CN1CCN(c2cc(C#N)cc(Nc3nc(NC4CC4)c4ncc(C#N)n4n3)c2Cl)CC1 [Example 1, 2-((2-chloro-5-cyano-3-(4-methyl-1-piperazinyl)phenyl)amino)-4-(cyclopropylamino)imidazo[2,1-f][1,2,4]triazine-7-carbonitrile] | 
0.36 | N#Cc1cc(Nc2nc(NC3CC3)c3ncc(C#N)n3n2)c(Cl)c(N2CCN(C(=O)CCn3ccnc3)CC2)c1 [Example 98] | 
0.65 | CNC(=O)CN1CCN(c2cc(C#N)cc(Nc3nc(NC4CC4)c4ncc(C#N)n4n3)c2Cl)CC1 [Example 611, 2-[4-(2-chloro-5-cyano-3-{[7-cyano-4-(cyclopropylamino)imidazo [2,1-f][1,2,4]triazin-2-yl]amino}phenyl)piperazin-1-yl]-N-methylacetamide] | 
0.85 | N#Cc1cc(Nc2nc(NC3CC3)c3ncc(C#N)n3n2)c(Cl)c(C2(O)CCN(C3COC3)CC2)c1 [Example 648, 2-((2-chloro-5-cyano-3-(4-hydroxy-1-(oxetan-3-yl)piperidin-4-yl)phenyl)amino)-4-(cyclopropylamino)imidazo[2,1-f][1,2,4]triazine-7-carbonitrile] | 
2.05 | N#Cc1cnc2c(NC3CC3)nc(Nc3cc(OC(F)F)cc(N4CCN(C5COC5)CC4)c3Cl)nn12 [Example 557, 2-((2-chloro-5-(difluoromethoxy)-3-(4-(oxetan-3-yl)piperazin-1-yl)phenyl)amino)-4-(cyclopropylamino)imidazo[2,1-f][1,2,4]triazine-7-carbonitrile] | 
0.81 | CC(=O)N1CC2(CCN(c3cc(C#N)cc(Nc4nc(NC5CC5)c5ncc(C#N)n5n4)c3Cl)CC2)C1 [Example 793, 2-((3-(2-acetyl-2,7-diazaspiro[3.5]nonan-7-yl)-2-chloro-5-cyanophenyl)amino)-4-(cyclopropylamino)imidazo[2,1-f][1,2,4]triazine-7-carbonitrile] | 
2.94 | CC(O)CN1CCN(c2cc(C#N)cc(Nc3nc(NC4CC4)c4ncc(C#N)n4n3)c2Cl)C(=O)C1 (racemic) [Example 624, (+/−)-2-((2-chloro-5-cyano-3-(4-(2-hydroxypropyl)-2-oxopiperazin-1-yl)phenyl)amino)-4-(cyclopropylamino)imidazo[2,1-f][1,2,4]triazine-7-carbonitrile] | 
2.05 | CCNc1nc(Nc2cc(C#N)cc(N3CC[C@@H]4[C@@H](C3)OC(=O)N4[C@H]3CCOC3)c2Cl)nn2c(C#N)cnc12 (single isomer, unassigned) [Example 842] | 

Source: US9273057B2 (Bristol-Myers Squibb Company, priority 2012, dated 2016)
